In US8383853B2, “Method for preparing 2,6-diethyl-4-methylphenylacetic acid” (Bayer Cropscience AG, priority 2004, dated 2013):

Key:
Type in all cases: in vivo
[1] = test system: Setaria viridis; test: Herbicidal post-emergence action; settings: greenhouse, 80 g of a.i./ha
Description: (§1) Seeds of monocotyledonous and dicotyledonous weed and crop plants are placed into sandy loam in wood fiber pots, covered with soil and cultivated in a greenhouse under good growth conditions. Two-three weeks after sowing, the test plants are treated at the one-leaf stage. The test compounds, formulated as wettable powders (WP), are then, in various dosages with a water application rate of 600 l/ha (converted), with 0.2% of wetting agent added, sprayed onto the green parts of the plants. After the test plants have been kept in the greenhouse under optimum growth conditions for about 3 weeks, the effect of the preparations is rated visually in comparison to untreated controls (herbicidal effect in percent (%): 100% effect=the plants have died, 0% effect=like control plants).

[2] = test system: Veronica; test: Herbicidal post-emergence action; settings: greenhouse, 80 g of a.i./ha
Description: as §1

[3] = test system: Lolium multiflorum; test: Herbicidal post-emergence action; settings: greenhouse, 80 g of a.i./ha
Description: as §1

[4] = test system: Alopecurus; test: Herbicidal post-emergence action; settings: greenhouse, 80 g of a.i./ha
Description: as §1

[5] = test system: Avena fatua; test: Herbicidal post-emergence action; settings: greenhouse, 80 g of a.i./ha
Description: as §1

[6] = test system: Meloidogyne incognita; test: Meloidogyne test (spray treatment); settings: 20 ppm of a.i., after 14 d
Description: To produce a suitable preparation of active compound, 1 part by weight of active compound is mixed with the stated amounts of solvent, and the concentrate is diluted with water to the desired concentration.
Vessels are filled with sand, solution of active compound, Meloidogyne incognita egg/larva suspension and lettuce seeds. The lettuce seeds germinate and the plants develop. On the roots, galls are formed.
After the desired period of time, the nematicidal activity is determined in % by the formation of galls. 100% means that no galls have been found; 0% means that the number of galls on the treated plants corresponds to that of the untreated control.

[7] = test system: Setaria viridis; test: Herbicidal pre-emergence action; settings: greenhouse
Text: (§2) Seeds of monocotyledonous and dicotyledonous weed and crop plants are placed in sandy loam in wood fiber pots and covered with soil. The test compounds, formulated in the form of wettable powders (WP), are then, as an aqueous suspension with a water application rate of 600 l/ha (converted), with 0.2% of wetting agent added, applied to the surface of the covering soil in various dosages.
(§3) After the treatment, the pots are placed in a greenhouse and kept under good growth conditions for the test plants. The visual assessment of the emergence damage on the test plants is carried out after a trial period of 3 weeks by comparison with untreated controls (herbicidal effect in percent (%): 100% effect=the plants have died, 0% effect=like control plants).

[8] = test system: Veronica; test: Herbicidal pre-emergence action; settings: greenhouse, 320 g of a.i./ha
Text: as §2, §3

[9] = test system: Lolium multiflorum; test: Herbicidal pre-emergence action; settings: greenhouse
Text: as §2, §3

[10] = test system: Alopecurus; test: Herbicidal pre-emergence action; settings: greenhouse
Text: as §2, §3

[11] = test system: Avena fatua; test: Herbicidal pre-emergence action; settings: greenhouse
Text: as §2, §3

[12] = test system: Summer wheat; test: Container trials with cereal, post-emergence, without or with safener; settings: crop damage, 28 days after application
Description: (§4) Seeds of monocotyledonous and dicotyledonous weed and crop plants are placed into sandy loam in wood fiber pots or in plastic pots, covered with soil and cultivated in a greenhouse, during the vegetation period also outdoors outside of the greenhouse, under good growth conditions. Two-three weeks after sowing, the test plants are treated at the one- to three-leaf stage. The test compounds, formulated as wettable powders (WP) or liquid (EC) are, in various dosages with a water application rate of […] (converted), with wetting agent (0.2 to 0.3%) added, sprayed onto the plants and the surface of the soil. Three-four weeks after the treatment of the test plants, the effect of the preparations is rated visually in comparison to untreated controls (herbicidal effect in percent (%): 100% effect=the plants have died, 0% effect=like control plants).
(§5) If it is additionally to be tested as to whether safeners can improve the plant compatibility of test substances in the case of crop plants, the following options are used for applying the safener: • seeds of the crop plants are, before sowing, dressed with the safener substance (the amount of safener stated in percent, based on the weight of the seed) • before the application of the test substances, the crop plants are sprayed with the safener at a certain application rate per hectare (usually 1 day before the application of the test substances) • the safener is applied together with the test substance as a tank mix (the amount of safener is stated in g/ha or as a ratio, based on the herbicide).
(§6) By comparing the effect of the test substances on crop plants without or with safener treatment, it is possible to assess the effect of the safener substance.

[13] = test system: Summer barley; test: as above; settings: crop damage
Description: as §4, §5, §6

[14] = test system: Echinochloa crus-galli; test: Herbicidal post-emergence action; settings: greenhouse, 80 g of a.i./ha
Description: as §1

[15] = test system: Echinochloa; test: Herbicidal pre-emergence action; settings: greenhouse, 80 g of a.i./ha
Text: as §2, §3

[16] = greenhouse, post-emergence, 12.5 g of a.i./ha
[17] = greenhouse, post-emergence, 25 g of a.i./ha

CCOCC(=O)OC1=C(c2c(CC)cc(C)cc2CC)C(=O)NC12CCC(OC)CC2 (single isomer, unassigned) [I-b-2]
herbicidal effect, Setaria [1]: 100% | herbicidal effect, Veronica [2]: 70% | herbicidal effect, Lolium [3]: 100% | herbicidal effect, Alopecurus [4]: 100% | herbicidal effect, Avena fatua [5]: 100% | nematicidal activity in % by the formation of galls [6]: ≥ 70% | herbicidal effect, Setaria ([7]; 320 g of a.i./ha): 100% | herbicidal effect, Veronica [8]: 100% | herbicidal effect, Lolium ([9]; 320 g of a.i./ha): 100% | herbicidal effect, Alopecurus ([10]; 320 g of a.i./ha): 100% | herbicidal effect, Avena fatua ([11]; 320 g of a.i./ha): 90% | Summer wheat observed (%) ([12]; 12.5 g of a.i./ha): 95%

CCc1cc(C)cc(CC)c1C1=C(O)C2(CCC(OC)CC2)NC1=O (stereo not shown) [I-a-1]
Summer barley observed (%) [13, 16]: 20% | Summer barley observed (%) [13, 17]: 60% | Summer barley observed (%) ([13]; greenhouse, post-emergence, 50 g of a.i./ha): 93%

C=CCOC(=O)OC1=C(c2c(CC)cc(C)cc2CC)C(=O)NC12CCC(OC)CC2 (stereo not shown) [I-c-1]
herbicidal effect, Setaria [1]: 100% | herbicidal effect, Lolium [3]: 100% | herbicidal effect, Alopecurus [4]: 100% | herbicidal effect, Avena fatua [5]: 90% | herbicidal effect, Echinochloa [14]: 100% | herbicidal effect, Setaria ([7]; 80 g of a.i./ha): 100% | herbicidal effect, Echinochloa [15]: 100% | herbicidal effect, Lolium ([9]; 80 g of a.i./ha): 100% | herbicidal effect, Alopecurus ([10]; 80 g of a.i./ha): 100% | herbicidal effect, Avena fatua ([11]; 80 g of a.i./ha): 60% | Summer barley observed (%) [13, 16]: 35% | Summer barley observed (%) [13, 17]: 60%

CCOC(=O)OC1=C(c2c(CC)cc(C)cc2CC)C(=O)NC12CCC(OC)CC2 (single isomer, unassigned) [I-c-2]
herbicidal effect, Setaria [1]: 100% | herbicidal effect, Veronica [2]: 80% | herbicidal effect, Lolium [3]: 100% | herbicidal effect, Alopecurus [4]: 100% | herbicidal effect, Echinochloa [14]: 100% | herbicidal effect, Setaria ([7]; 80 g of a.i./ha): 90% | herbicidal effect, Echinochloa [15]: 100% | herbicidal effect, Lolium ([9]; 80 g of a.i./ha): 100% | herbicidal effect, Alopecurus ([10]; 80 g of a.i./ha): 90%

CCc1cc(C)cc(CC)c1C1=C(OC(=O)COC)C2(CCC(OC)CC2)NC1=O (stereo not shown) [I-b-1]
herbicidal effect, Setaria [1]: 100% | herbicidal effect, Veronica [2]: 80% | herbicidal effect, Lolium [3]: 100% | herbicidal effect, Alopecurus [4]: 100% | herbicidal effect, Avena fatua [5]: 100% | Summer wheat observed (%) ([12]; 25 g of a.i./ha): 90%

CCOC1CCC2(CC1)NC(=O)C(c1c(CC)cc(C)cc1CC)=C2O (single isomer, unassigned) [I-a-2]
Summer barley observed (%) ([13]; 28 days after application, 25 g of a.i./ha): 25% | Summer barley observed (%) ([13]; 28 days after application, 50 g of a.i./ha): 50% | Summer wheat observed (%) ([12]; 12.5 g of a.i./ha): 40% | Summer wheat observed (%) ([12]; 25 g of a.i./ha): 80%
